Assay results reported in the NIST ThermoML archive (doi:10.1016/j.tca.2012.08.011).

How the values were obtained:
[1] = 101 kPa, Liquid; for speed of sound: Linear variable-path acoustic interferometer; for mass density: Vibrating tube method
[2] = xn = mol fraction of the nth substance listed; conditions: 101 kPa, Liquid, x2 = 0; for speed of sound: Linear variable-path acoustic interferometer; for mass density: Vibrating tube method

c1ccccc1 [benzene]
[1]
Conditions	mass density [kg/m3]	speed of sound [m/s]
293.15 K	878.95	1322.7
298.15 K	873.61	1299.3
303.15 K	868.25	1276
308.15 K	862.88	1252.8
313.15 K	857.48	1229.8
318.15 K	852.08	1207
323.15 K	846.65	1184.5

c1ccccc1 [benzene] + NC1CCCCC1
[2]
Conditions	mass density [kg/m3]	speed of sound [m/s]
293.15 K	878.95	1322.7
298.15 K	873.61	1299.3
303.15 K	868.25	1276
308.15 K	862.88	1252.8
313.15 K	857.48	1229.8
318.15 K	852.08	1207
323.15 K	846.65	1184.5

C1CCCCC1 [cyclohexane]
[1]
Conditions	mass density [kg/m3]	speed of sound [m/s]
293.15 K	778.55	1278.6
298.15 K	773.84	1253.9
303.15 K	769.11	1229.3
308.15 K	764.35	1205.1
313.15 K	759.56	1181
318.15 K	754.74	1157.3
323.15 K	749.89	1133.7

C1CCCCC1 [cyclohexane] + NC1CCCCC1
[2]
Conditions	mass density [kg/m3]	speed of sound [m/s]
293.15 K	778.55	1278.6
298.15 K	773.84	1253.9
303.15 K	769.11	1229.3
308.15 K	764.35	1205.1
313.15 K	759.56	1181
318.15 K	754.74	1157.3
323.15 K	749.89	1133.7

NC1CCCCC1 [cyclohexylamine]
[1]
Conditions	mass density [kg/m3]	speed of sound [m/s]
293.15 K	867.39	1430.5
298.15 K	862.85	1408.8
303.15 K	858.31	1387.3
308.15 K	853.76	1366
313.15 K	849.23	1344.5
318.15 K	844.68	1323.1
323.15 K	840.14	1301.8
